These results are taken from article PMC10344949, “Arachidonic acid reverses cholesterol and zinc inhibition of human voltage-gated proton channels” (The Journal of Biological Chemistry, 2023).

This assay has as its target T1, hHv1 (human voltage-gated proton channel) (Homo sapiens, UniProt Q96D96).
T1 construct: gene HVCN1; no truncation stated
T1 sequence (Q96D96 1-273): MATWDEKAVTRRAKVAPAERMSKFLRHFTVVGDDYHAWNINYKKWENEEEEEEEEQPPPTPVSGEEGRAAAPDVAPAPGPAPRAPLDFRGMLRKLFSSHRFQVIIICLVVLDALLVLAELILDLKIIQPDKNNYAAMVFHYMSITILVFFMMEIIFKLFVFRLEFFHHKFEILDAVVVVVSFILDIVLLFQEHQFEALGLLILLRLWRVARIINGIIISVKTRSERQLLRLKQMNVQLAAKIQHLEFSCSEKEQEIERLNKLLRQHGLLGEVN
The experiment in a line: liposome proton flux assay (ACMA quenching), Hill fit. In kind it is biochemical. The settings on record: read-out: half activation concentration (Kd).

On to `CCCCC/C=C\C/C=C\C/C=C\C/C=C\CCCC(=O)O` [arachidonic acid], for which the EC50 came to 7.2 µM.
